Columns and labels:
[1] = target: T1, human GMPR type 2 (hGMPR2) (Homo sapiens, UniProt Q9P2T1); experiment: X-ray crystal structure of E•IMP•NADPH, […] Å; assay type: binding
T1 sequence (Q9P2T1 1-348): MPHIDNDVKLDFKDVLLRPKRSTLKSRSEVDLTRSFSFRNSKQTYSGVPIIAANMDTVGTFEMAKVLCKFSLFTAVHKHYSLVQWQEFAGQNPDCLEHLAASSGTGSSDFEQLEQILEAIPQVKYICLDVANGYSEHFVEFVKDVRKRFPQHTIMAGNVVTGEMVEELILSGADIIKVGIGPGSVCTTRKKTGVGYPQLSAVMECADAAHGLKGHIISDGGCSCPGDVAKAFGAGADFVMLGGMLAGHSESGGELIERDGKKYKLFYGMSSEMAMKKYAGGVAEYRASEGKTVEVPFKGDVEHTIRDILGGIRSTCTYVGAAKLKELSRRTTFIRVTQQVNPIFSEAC

[2] = target: E. coli GMPR (EcGMPR), GMP reductase (Escherichia coli, UniProt P60560); experiment: spectrophotometric enzyme inhibition assay; assay type: biochemical
[3] = system: CC(=O)C1=CN([C@@H]2O[C@H](COP(=O)(O)OP(=O)(O)OC[C@H]3O[C@@H](n4cnc5c(N)ncnc54)[C@H](OP(=O)(O)O)[C@@H]3O)[C@@H](O)[C@H]2O)C=CC1; experiment: purified protein; conditions: 2-Cl-IMP (co-substrate); varied: cofactor
[4] = system: O=c1[nH]c(Cl)nc2c1ncn2[C@@H]1O[C@H](COP(=O)(O)O)[C@@H](O)[C@H]1O; experiment: purified protein; conditions: NADPH or NADP+ catalytic Cys186 (E-XMP* intermediate; none with C186A)
crystal structure = target: the molecule itself; experiment: crystal structure

Chain of E. coli GMPR (EcGMPR), GMP reductase (P60560 whole entry): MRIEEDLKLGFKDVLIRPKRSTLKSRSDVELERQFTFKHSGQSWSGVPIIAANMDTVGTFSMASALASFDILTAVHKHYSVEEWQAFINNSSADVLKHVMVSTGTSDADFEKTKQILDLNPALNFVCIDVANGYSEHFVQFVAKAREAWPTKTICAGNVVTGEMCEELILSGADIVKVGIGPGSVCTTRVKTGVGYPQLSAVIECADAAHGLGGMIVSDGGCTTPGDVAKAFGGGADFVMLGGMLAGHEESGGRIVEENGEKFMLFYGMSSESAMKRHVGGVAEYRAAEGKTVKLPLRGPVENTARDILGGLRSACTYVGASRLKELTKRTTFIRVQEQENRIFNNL

## NC(=O)C1=CN([C@@H]2O[C@H](COP(=O)(O)OP(=O)(O)OC[C@H]3O[C@@H](n4cnc5c(N)ncnc54)[C@H](OP(=O)(O)O)[C@@H]3O)[C@@H](O)[C@H]2O)C=CC1 [NADPH]
[1]
  X-ray crystal structure of E•IMP•NADPH, 1.7 Å: NADPH was found in two conformations in the seven monomers, an "in" conformation and an "out" conformation

## NC(=O)c1ncn([C@@H]2O[C@H](COP(=O)(O)O)[C@@H](O)[C@H]2O)n1 [Ribavirin monophosphate]
[2]
  Ki: 98 ± 25 µM

## NC(=O)c1ncn([C@@H]2O[C@H](COP(=O)(O)O)[C@@H](O)[C@H]2O)c1O [mizoribine monophosphate]
[2]
  Ki: 0.015 ± 0.003 µM

## E. coli GMPR (EcGMPR), GMP reductase (Escherichia coli K-12)
[3]
  Km: 11.0 ± 2.0 µM
[4]
  Km: 7.8 ± 1.1 µM

B1: human GMP reductase type 2 (enzyme)
chain: LDFKDVLLRPKRSTLKSRSEVDLTRSFSFRNSKQTYSGVPIIAANMDTVGTFEMAKVLCKFSLFTAVHKHYSLVQWQEFAGQNPDCLEHLAASSGTGSSDFEQLEQILEAIPQVKYICLDVANGYSEHFVEFVKDVRKRFPQHTIMAGNVVTGEMVEELILSGADIIKVGIGPGSVCTTRKKTGVGYPQLSAVMECADAAHGLKGHIISDGGCSCPGDVAKAFGAGADFVMLGGMLAGHSESGGELIERDGKKYKLFYGMSSEMAMKKYAGGVAEYRASEGKTVEVPFKGDVEHTIRDILGGIRSTCTYVGAAKLKELSRRTTFIRVTQQVN
Crystal structure
  stoichiometry N: 4
